This is an account of results in patent US10188634B2, “3-(3H-imidazo[4,5-C]pyridin-2-yl)-1 H-pyrazolo[4,3-B]pyridines and therapeutic uses thereof” (Samumed, LLC, priority 2015, dated 2019).

A value given as a limit tells only on which side of the number the result lay.

In one test the test system is SW480 colon cancer cells. The experiment in a line: Cell viability assay (CellTiter-Blue) in SW480 colon cancer cells. It counts as cell-based. The conditions noted are these: Homo sapiens, 96 h; for EC50: four days incubation, CellTiter-Blue cell viability; for inhibition at 10 µM: four days, CellTiter-Blue, read-out: percent inhibition at 10 μM (given for EC50 of >10 μM). An outline of the steps: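 Four-day exposure of SW480 cells (~2×10^3/well) to compound from 10 μM down to 0.004 μM in 1:3 steps, in duplicate. Resorufin fluorescence from CellTiter-Blue after ~3 h served as the viability read-out. EC50 values came from nonlinear curve fits, with % inhibition at 10 μM given where EC50 >10 μM.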
Background: Alamar Blue is a resazurin reagent that responds to reducing activity.

The subject of test [1] is LL29 cells (primary human fibroblasts derived from IPF patients) treated with TGF-β1, α-smooth muscle actin. Nature of the test: Inhibition of the fibrotic process: αSMA staining in TGF-β1 treated primary human fibroblasts from IPF patients (LL29 cells). The test is classed as cell-based. Conditions: Fibroblast, 96 h; for EC50: LL29 cells treated with TGF-β1 (20 ng/mL), 4 days; for inhibition at 10 µM: LL29 cells treated with TGF-β1, 4 days, read-out: percent inhibition in brackets (given for EC50 >10 μM).

What is called EC50 is the midpoint of the concentration-response curve. Low values mean an effect from little substance, high ones a need for much substance. The inhibition is how much of the control response was suppressed.

For `CN(C)c1cncc(-c2ccc3[nH]nc(-c4nc5c(-c6cccc(F)c6)cncc5[nH]4)c3n2)c1` [Compound 7, 5-(3-(7-(3-Fluorophenyl)-3H-imidazo[4,5-c]pyridin-2-yl)-1H-pyrazolo[4,3-b]pyridin-5-yl)-N,N-dimethylpyridin-3-amine], the 50% effective concentration (EC50) in the test with SW480 colon cancer cells is 0.86 µM. In test [1], the EC50 was > 10 µM and the inhibition at 10 µM amounted to 0%.

On to `CN(C)Cc1cncc(-c2ccc3[nH]nc(-c4nc5c(-c6cccc(F)c6)cncc5[nH]4)c3n2)c1` [Compound 13, 1-(5-(3-(7-(3-Fluorophenyl)-3H-imidazo[4,5-c]pyridin-2-yl)-1H-pyrazolo[4,3-b]pyridin-5-yl)pyridin-3-yl)-N,N-dimethylmethanamine], for which the half-maximal effective concentration (EC50) stood at 0.784 µM in the test on SW480 colon cancer cells and 0.479 µM in test [1].

`O=C(Nc1cncc(-c2ccc3[nH]nc(-c4nc5c(-c6cccc(F)c6)cncc5[nH]4)c3n2)c1)C1CC1` [Compound 20, N-(5-(3-(7-(3-Fluorophenyl)-3H-imidazo[4,5-c]pyridin-2-yl)-1H-pyrazolo[4,3-b]pyridin-5-yl)pyridin-3-yl)cyclopropanecarboxamide]: the inhibition at 10 µM is 5.1% with SW480 colon cancer cells and 0% in test [1]. For the same molecule, the EC50 (in the test with SW480 colon cancer cells; in test [1]) was > 10 µM each time.

On to `Fc1cccc(-c2cncc3[nH]c(-c4n[nH]c5ccc(-c6cncc(CN7CCC(F)(F)C7)c6)nc45)nc23)c1` [Compound 26, 5-(5-((3,3-Difluoropyrrolidin-1-yl)methyl)pyridin-3-yl)-3-(7-(3-fluorophenyl)-3H-imidazo[4,5-c]pyridin-2-yl)-1H-pyrazolo[4,3-b]pyridine], for which the 50% effective concentration (EC50) in the test on SW480 colon cancer cells was found to be 0.98 µM; in test [1], 6.22 µM.

As to `CC(C)(C)C(=O)Nc1cncc(-c2ccc3[nH]nc(-c4nc5c(-c6ccc(F)cc6)cncc5[nH]4)c3n2)c1` [Compound 36, N-(5-(3-(7-(4-Fluorophenyl)-3H-imidazo[4,5-c]pyridin-2-yl)-1H-pyrazolo[4,3-b]pyridin-5-yl)pyridin-3-yl)pivalamide], the EC50 turned out to be 6.23 µM in the test with SW480 colon cancer cells and 1.22 µM in test [1].

On to `Fc1ccc(-c2cncc3[nH]c(-c4n[nH]c5ccc(-c6cncc(CN7CCCC7)c6)nc45)nc23)cc1` [Compound 42, 3-(7-(4-Fluorophenyl)-3H-imidazo[4,5-c]pyrid-2-yl)-5-(5-(pyrrolidin-1-ylmethyl)pyridin-3-yl)-1H-pyrazolo[4,3-b]pyridine], for which the EC50 is 1.05 µM in the test on SW480 colon cancer cells and 2.47 µM in test [1].

On to `Fc1ccccc1-c1cncc2[nH]c(-c3n[nH]c4ccc(-c5ccccn5)nc34)nc12` [Compound 84, 3-(7-(2-Fluorophenyl)-3H-imidazo[4,5-c]pyridin-2-yl)-5-(pyridin-2-yl)-1H-pyrazolo[4,3-b]pyridine], for which the midpoint of the response in the test with SW480 colon cancer cells, the EC50, lay at 0.362 µM. Also, in test [1], the concentration for a half-maximal effect (EC50) was > 10 µM and the inhibition at 10 µM came out at 29.7%.

As to `CC(C)Nc1cncc(-c2ccc3[nH]nc(-c4nc5c(-c6cccnc6)cncc5[nH]4)c3n2)c1` [Compound 96, N-Isopropyl-5-(3-(7-(pyridin-3-yl)-3H-imidazo[4,5-c]pyridin-2-yl)-1H-pyrazolo[4,3-b]pyridin-5-yl)pyridin-3-amine], the 50% effective concentration (EC50) with SW480 colon cancer cells worked out at 6.19 µM; in test [1], 3.09 µM.

Consider `CN(C)c1cncc(-c2ccc3[nH]nc(-c4nc5c(N6CCCCC6)cncc5[nH]4)c3n2)c1` [Compound 175, N,N-dimethyl-5-(3-(7-(piperidin-1-yl)-3H-imidazo[4,5-c]pyridin-2-yl)-1H-pyrazolo[4,3-b]pyridin-5-yl)pyridin-3-amine], for which the EC50 in the test on SW480 colon cancer cells worked out at 3.84 µM; in test [1] it was 1.31 µM.

Consider `Cc1ccncc1-c1ccc2[nH]nc(-c3nc4c(-c5ccsc5)cncc4[nH]3)c2n1` [Compound 257, 5-(4-Methylpyridin-3-yl)-3-(7-(thiophen-3-yl)-3H-imidazo[4,5-c]pyridin-2-yl)-1H-pyrazolo[4,3-b]pyridine], for which the results for the EC50 (with SW480 colon cancer cells; in test [1]) were 0.856 µM and 8.55 µM, respectively.

As to `CCCC(=O)Nc1cncc(-c2ccc3[nH]nc(-c4nc5c(-c6ccsc6)cncc5[nH]4)c3n2)c1` [Compound 269, N-(5-(3-(7-(Thiophen-3-yl)-3H-imidazo[4,5-c]pyridin-2-yl)-1H-pyrazolo[4,3-b]pyridin-5-yl)pyridin-3-yl)butyramide], the values for the EC50 (in the test with SW480 colon cancer cells; in test [1]) were 3.44 µM and 7.23 µM, respectively.

Turning to `FC1(F)CCN(Cc2cncc(-c3ccc4[nH]nc(-c5nc6c(-c7ccsc7)cncc6[nH]5)c4n3)c2)C1` [Compound 278, 5-(5-((3,3-difluoropyrrolidin-1-yl)methyl)pyridin-3-yl)-3-(7-(thiophen-3-yl)-3H-imidazo[4,5-c]pyridin-2-yl)-1H-pyrazolo[4,3-b]pyridine], the results for the EC50 (in the test on SW480 colon cancer cells; in test [1]) were 1.02 µM and 1.7 µM, respectively.

With `CC(C)Nc1cncc(-c2ccc3[nH]nc(-c4nc5c(-c6ccoc6)cncc5[nH]4)c3n2)c1` [Compound 292, 5-(3-(7-(Furan-3-yl)-3H-imidazo[4,5-c]pyridin-2-yl)-1H-pyrazolo[4,3-b]pyridin-5-yl)-N-isopropylpyridin-3-amine], the EC50 in the test on SW480 colon cancer cells was 0.646 µM; in test [1], 1.15 µM.

For `c1cc(-c2cncc3[nH]c(-c4n[nH]c5ccc(-c6cncc(CNCC7CCCC7)c6)nc45)nc23)co1` [Compound 305, 1-Cyclopentyl-N-((5-(3-(7-(furan-3-yl)-3H-imidazo[4,5-c]pyridin-2-yl)-1H-pyrazolo[4,3-b]pyridin-5-yl)pyridin-3-yl)methyl)methanamine], the EC50 with SW480 colon cancer cells was 4.61 µM; in test [1] it was > 10 µM. Also, in test [1], the inhibition at 10 µM is 0%.

For `CN(C)c1cncc(-c2ccc3[nH]nc(-c4nc5c(-c6cccs6)cncc5[nH]4)c3n2)c1` [Compound 315, N,N-Dimethyl-5-(3-(7-(thiophen-2-yl)-3H-imidazo[4,5-c]pyridin-2-yl)-1H-pyrazolo[4,3-b]pyridin-5-yl)pyridin-3-amine], in the test with SW480 colon cancer cells, the inhibition at 10 µM was 43.8% and the EC50 is > 10 µM. In test [1], the EC50 was > 10 µM and the inhibition at 10 µM was found to be 34.3%.

For the molecule `Cc1ccc(-c2cncc3[nH]c(-c4n[nH]c5ccc(-c6cncc(N)c6)nc45)nc23)s1` [Compound 367, 5-(3-(7-(5-Methylthiophen-2-yl)-3H-imidazo[4,5-c]pyridin-2-yl)-1H-pyrazolo[4,3-b]pyridin-5-yl)pyridin-3-amine], the EC50 in the test on SW480 colon cancer cells turned out to be 0.097 µM; in test [1] it was 0.815 µM.

Turning to `CC(C)Nc1cncc(-c2ccc3[nH]nc(-c4nc5c(-c6cc(F)cc(NCCN(C)C)c6)cncc5[nH]4)c3n2)c1` [Compound 432, N^1-(3-Fluoro-5-(2-(5-(5-(isopropylamino)pyridin-3-yl)-1H-pyrazolo[4,3-b]pyridin-3-yl)-3H-imidazo[4,5-c]pyridin-7-yl)phenyl)-N^2,N^2-dimethylethane-1,2-diamine], the EC50 in the test on SW480 colon cancer cells was found to be 5.36 µM; in test [1], 6.41 µM.

In the case of `Cc1ccncc1-c1ccc2[nH]nc(-c3nc4c(-c5cc(F)cc(CNS(C)(=O)=O)c5)cncc4[nH]3)c2n1` [Compound 453, N-(3-Fluoro-5-(2-(5-(4-methylpyridin-3-yl)-1H-pyrazolo[4,3-b]pyridin-3-yl)-3H-imidazo[4,5-c]pyridin-7-yl)benzyl)methanesulfonamide], the inhibition at 10 µM is 37.3% with SW480 colon cancer cells and 0% in test [1]. The EC50 (with SW480 colon cancer cells; in test [1]) was > 10 µM in each case.

`CN(C)CCOc1cncc(-c2ccc3[nH]nc(-c4nc5c(-c6cccc(F)c6)cncc5[nH]4)c3n2)c1` [Compound 487, 2-((5-(3-(7-(3-Fluorophenyl)-3H-imidazo[4,5-c]pyridin-2-yl)-1H-pyrazolo[4,3-b]pyridin-5-yl)pyridin-3-yl)oxy)-N,N-dimethylethan-1-amine]: the EC50 is 5.54 µM with SW480 colon cancer cells and > 10 µM in test [1]. In addition, in test [1], the inhibition at 10 µM was 30.7%.

As to `COc1cncc(-c2ccc3[nH]nc(-c4nc5c(-c6cccc(F)c6)cncc5[nH]4)c3n2)c1` [Compound 488, 3-(7-(3-Fluorophenyl)-3H-imidazo[4,5-c]pyridin-2-yl)-5-(5-methoxylpyridin-3-yl)-1H-pyrazolo[4,3-b]pyridine], in the test on SW480 colon cancer cells, the inhibition at 10 µM amounted to 0% and the EC50 is > 10 µM. Further, in test [1], the EC50 was > 10 µM and the inhibition at 10 µM is 0%.

On to `O=C(CC1CCNCC1)Nc1cncc(-c2ccc3[nH]nc(-c4nc5c(-c6ccccn6)cncc5[nH]4)c3n2)c1` [Compound 565, 2-(Piperidin-4-yl)-N-(5-(3-(7-(pyridin-2-yl)-3H-imidazo[4,5-c]pyridin-2-yl)-1H-pyrazolo[4,3-b]pyridin-5-yl)pyridin-3-yl)acetamide], for which the inhibition at 10 µM in the test on SW480 colon cancer cells came to 5.1%. Besides, the EC50 in the test on SW480 colon cancer cells was > 10 µM; in test [1] it was 0.839 µM.

In the case of `c1ncc(-c2ccc3[nH]nc(-c4nc5c(N6CCCCC6)cncc5[nH]4)c3n2)cc1OCCN1CCCC1` [Compound 582, 3-(7-(Piperidin-1-yl)-3H-imidazo[4,5-c]pyridin-2-yl)-5-(5-(2-(pyrrolidin-1-yl)ethoxy)pyridin-3-yl)-1H-pyrazolo[4,3-b]pyridine], in the test with SW480 colon cancer cells, the inhibition at 10 µM is 15.8% and the EC50 is > 10 µM. Moreover, a half-maximal effect in test [1] (EC50) was put at 3.32 µM.

Turning to `Oc1cncc(-c2ccc3[nH]nc(-c4nc5c(N6CCCCC6)cncc5[nH]4)c3n2)c1` [Compound 585, 5-(3-(7-(Piperidin-1-yl)-3H-imidazo[4,5-c]pyridin-2-yl)-1H-pyrazolo[4,3-b]pyridin-5-yl)pyridin-3-ol], in the test with SW480 colon cancer cells, the inhibition at 10 µM came to 2.4% and the concentration giving a half-maximal response (EC50) is > 10 µM. In test [1], the 50% effective concentration (EC50) is > 10 µM and the inhibition at 10 µM turned out to be 39.1%.
